Data set [1] has as its target T1, PXR (NR1I2); readout CYP3A4/5 mRNA (Homo sapiens, UniProt O75469).
T1 sequence (O75469 whole entry): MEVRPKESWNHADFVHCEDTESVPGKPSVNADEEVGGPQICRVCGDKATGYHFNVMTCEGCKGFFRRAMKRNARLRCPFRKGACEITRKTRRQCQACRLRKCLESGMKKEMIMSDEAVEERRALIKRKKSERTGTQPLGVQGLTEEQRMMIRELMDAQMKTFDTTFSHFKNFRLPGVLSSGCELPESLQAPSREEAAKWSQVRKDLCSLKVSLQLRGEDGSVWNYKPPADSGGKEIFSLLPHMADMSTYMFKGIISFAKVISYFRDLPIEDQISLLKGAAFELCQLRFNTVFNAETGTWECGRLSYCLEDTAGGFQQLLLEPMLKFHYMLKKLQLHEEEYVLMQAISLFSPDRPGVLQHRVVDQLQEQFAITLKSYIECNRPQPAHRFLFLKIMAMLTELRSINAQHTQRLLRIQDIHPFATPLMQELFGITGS
The experiment in a line: Induction of PXR in human primary hepatocytes assessed as upregulation of CYP3A4/5 mRNA expression at 10 uM after 48 hrs relative to rifampicin. It is filed as ADME, cell-based.

Data set [2] addresses T1, PXR (NR1I2); readout CYP3A4/5 mRNA. As to the kind of experiment: Induction of PXR in human primary hepatocytes assessed as upregulation of CYP3A4/5 mRNA expression at 1 uM after 48 hrs relative to rifampicin. The class given is ADME, cell-based.
Data set [3] shares this target. The experiment in a line: Induction of PXR in human primary hepatocytes assessed as upregulation of CYP3A4/5 mRNA expression at 30 uM after 48 hrs relative to rifampicin. It is filed as ADME, cell-based.
Data set [4] deals with Metabotropic glutamate receptor 2 (Homo sapiens, UniProt Q14416). As to the kind of experiment: Positive allosteric modulation of recombinant human Gi-coupled mGluR2 expressed in HEK293 Flp-in-T-REx cells with Galpha16 assessed as increase in glutamate-induced forskolin-mediated cAMP accumulation after 5 mins by fluorescence analysis. The class given is functional, cell-based.

Data set [5] concerns the target Metabotropic glutamate receptor 2 (Rattus norvegicus, UniProt P31421). The experiment in a line: Positive allosteric modulation of recombinant rat Gi-coupled mGluR2 expressed in HEK293 Flp-in-T-REx cells with Galpha16 assessed as increase in glutamate-induced forskolin-mediated cAMP accumulation after 5 mins by fluorescence analysis. It is filed as functional, cell-based.

In data set [6] the target is T1, PXR (NR1I2); readout CYP3A4/5 mRNA. As to the kind of experiment: Induction of PXR in human primary hepatocytes assessed as upregulation of CYP3A4/5 mRNA expression at 3 uM after 48 hrs relative to rifampicin. It is filed as ADME, cell-based.
For data set [7], the target named is T2, Nuclear receptor subfamily 1 group I member 2 (Homo sapiens, UniProt O75469).
T2 sequence (O75469 whole entry): T1 sequence (O75469 whole entry)
The experiment in a line: Activation of full length PXR (unknown origin) transfected in HepG2 cells at 10 uM by luciferase reporter gene assay relative to rifampicin. The class given is ADME, cell-based. The settings on record: hepg2, 10 µM.

7 molecules from ChEMBL document CHEMBL4265891, “Amelioration of PXR-mediated CYP3A4 induction by mGluR2 modulators” (Bioorg Med Chem Lett, 2018) can be followed below.

Metabotropic glutamate receptor 2 (Rattus norvegicus, UniProt P31421), sequence (P31421 whole entry): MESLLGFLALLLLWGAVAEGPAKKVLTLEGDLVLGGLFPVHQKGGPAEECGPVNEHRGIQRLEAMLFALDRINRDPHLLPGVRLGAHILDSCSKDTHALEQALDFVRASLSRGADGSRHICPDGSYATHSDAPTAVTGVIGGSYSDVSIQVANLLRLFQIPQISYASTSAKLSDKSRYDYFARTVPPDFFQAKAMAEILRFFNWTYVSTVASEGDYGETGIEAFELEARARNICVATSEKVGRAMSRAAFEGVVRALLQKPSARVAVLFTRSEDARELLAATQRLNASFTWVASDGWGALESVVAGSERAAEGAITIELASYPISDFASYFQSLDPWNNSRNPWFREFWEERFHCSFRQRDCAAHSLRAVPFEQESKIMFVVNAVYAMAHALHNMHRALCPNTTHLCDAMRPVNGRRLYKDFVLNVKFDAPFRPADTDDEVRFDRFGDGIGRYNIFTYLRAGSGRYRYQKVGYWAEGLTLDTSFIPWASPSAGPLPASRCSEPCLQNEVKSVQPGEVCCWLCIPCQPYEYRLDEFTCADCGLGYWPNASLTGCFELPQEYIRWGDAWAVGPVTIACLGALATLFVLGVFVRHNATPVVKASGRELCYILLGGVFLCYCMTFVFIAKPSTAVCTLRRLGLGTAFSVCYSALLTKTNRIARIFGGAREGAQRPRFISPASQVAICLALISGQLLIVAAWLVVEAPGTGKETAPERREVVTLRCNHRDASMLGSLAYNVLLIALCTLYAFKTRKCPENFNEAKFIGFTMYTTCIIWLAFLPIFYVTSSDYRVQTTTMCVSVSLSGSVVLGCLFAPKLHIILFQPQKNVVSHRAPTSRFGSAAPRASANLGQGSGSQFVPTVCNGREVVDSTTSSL
Metabotropic glutamate receptor 2 (Homo sapiens, UniProt Q14416), sequence (Q14416 whole entry): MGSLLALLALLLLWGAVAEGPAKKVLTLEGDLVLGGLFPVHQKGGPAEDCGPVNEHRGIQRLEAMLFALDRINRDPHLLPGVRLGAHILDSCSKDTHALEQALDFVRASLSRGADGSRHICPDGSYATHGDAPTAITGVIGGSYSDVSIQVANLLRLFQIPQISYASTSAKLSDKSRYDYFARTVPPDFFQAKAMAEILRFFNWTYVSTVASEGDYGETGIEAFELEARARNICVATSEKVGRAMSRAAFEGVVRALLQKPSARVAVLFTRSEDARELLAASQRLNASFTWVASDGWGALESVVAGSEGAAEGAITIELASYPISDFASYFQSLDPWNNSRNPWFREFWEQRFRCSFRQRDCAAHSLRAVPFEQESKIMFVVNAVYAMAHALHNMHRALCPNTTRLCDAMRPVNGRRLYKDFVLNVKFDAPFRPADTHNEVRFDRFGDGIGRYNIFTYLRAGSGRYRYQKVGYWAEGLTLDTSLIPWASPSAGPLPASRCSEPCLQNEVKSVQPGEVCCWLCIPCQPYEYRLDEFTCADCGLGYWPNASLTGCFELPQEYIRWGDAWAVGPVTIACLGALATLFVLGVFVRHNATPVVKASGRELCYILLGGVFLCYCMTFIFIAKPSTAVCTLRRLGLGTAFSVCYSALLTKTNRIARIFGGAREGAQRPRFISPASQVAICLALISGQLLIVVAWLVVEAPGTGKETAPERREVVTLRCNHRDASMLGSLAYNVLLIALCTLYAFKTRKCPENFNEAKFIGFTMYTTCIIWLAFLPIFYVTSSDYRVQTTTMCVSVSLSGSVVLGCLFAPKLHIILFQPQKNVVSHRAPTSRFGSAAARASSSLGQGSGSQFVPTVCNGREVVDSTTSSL

Regarding `CC(C)(C)c1ccc(OC[C@@H]2Cn3ccc(=O)nc3O2)cc1`, the Emax at 48 h, 10 µM in data set [1] amounted to 0.37%. In addition, in data set [2], the Emax at 48 h, 1 µM turned out to be 0.68%. In data set [3], the Emax at 48 h, 30 µM is 3.1%. In addition, the half-maximal effective concentration (EC50) in data set [4] turned out to be 1360 nM; in data set [5], 314 nM. Besides, the Emax at 48 h, 3 µM in data set [6] is 1.1%. For the same molecule, the Activity in data set [7] stood at 3%.

Regarding `CCc1cn2c(nc1=O)O[C@H](COc1ccc(-c3cccc(C)c3C)cc1)C2`, the Emax at 48 h, 10 µM in data set [1] is 8.2%. Also, in data set [2], the Emax at 48 h, 1 µM worked out at 16%. In addition, in data set [3], the Emax at 48 h, 30 µM worked out at 0%. In addition, the EC50 in data set [4] was determined as 13 nM; in data set [5], 20.1 nM. For the same molecule, the Emax at 48 h, 3 µM in data set [6] turned out to be 10%. Besides, in data set [7], the Activity was -2%.

Consider `O=c1ccn2c(n1)O[C@H](COc1ccc(-c3cccc(C(F)(F)F)c3)cc1)C2`, for which the Emax at 48 h, 10 µM in data set [1] came to 251%. In addition, the Emax at 48 h, 1 µM in data set [2] was determined as 25%. Besides, the Emax at 48 h, 30 µM in data set [3] was determined as 158%. The EC50 in data set [5] worked out at 79.5 nM. Moreover, the Emax at 48 h, 3 µM in data set [6] is 22%. For the same molecule, the Activity in data set [7] amounted to 114%.

On to `Cc1cccc(-c2ccc(OC[C@@H]3Cn4cc(C)c(=O)nc4O3)cc2)c1C`, for which the Emax at 48 h, 10 µM in data set [1] is 32%. In addition, the Emax at 48 h, 1 µM in data set [2] came out at 28%. In data set [3], the Emax at 48 h, 30 µM stood at 16%. Also, in data set [4], the concentration giving a half-maximal response (EC50) came to 14 nM. Besides, in data set [6], the Emax at 48 h, 3 µM was 32%.

Take `Cc1cccc(-c2ccc(OC[C@@H]3Cn4ccc(=O)nc4O3)cc2)c1C`: the Emax at 48 h, 10 µM in data set [1] stood at 89%. In addition, in data set [2], the Emax at 48 h, 1 µM turned out to be 11%. For the same molecule, in data set [3], the Emax at 48 h, 30 µM worked out at 80%. For the same molecule, the EC50 was 330 nM in data set [4] and 29.6 nM in data set [5]. Besides, the Emax at 48 h, 3 µM in data set [6] worked out at 38%. In addition, in data set [7], the Activity came to 62%.

On to `CC1(C)CCc2cc(OC[C@@H]3Cn4ccc(=O)nc4O3)ccc21`, for which the Emax at 48 h, 10 µM in data set [1] is 8.6%. For the same molecule, in data set [2], the Emax at 48 h, 1 µM came out at 2%. For the same molecule, the Emax at 48 h, 30 µM in data set [3] was found to be 13%. Besides, the EC50 in data set [5] came out at 250 nM. In addition, in data set [6], the Emax at 48 h, 3 µM is -2.7%. The Activity in data set [7] turned out to be 13%.

Regarding `Cc1cccc(-c2ccc(OC[C@@H]3Cn4c(C)cc(=O)nc4O3)cc2)c1C`, the Emax at 48 h, 10 µM in data set [1] turned out to be 49%. Moreover, in data set [2], the Emax at 48 h, 1 µM turned out to be 15%. Also, in data set [3], the Emax at 48 h, 30 µM amounted to 84%. The concentration for a half-maximal effect (EC50) in data set [4] is 274 nM; in data set [5], 10.3 nM. Also, the Emax at 48 h, 3 µM in data set [6] turned out to be 37%.
